Test results as given in PubChem BioAssay (NCI).
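Growth conditions: 96-well plates. Treatment: test compound, 48 hours, 5 concentrations. Analysis: linear interpolation between bracketing concentrations; unreached endpoints set to highest concentration. The concentration for full growth arrest is given as TGI.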

Columns and labels:
Experiment in all cases: NCI-60 cell line screen, 48 h
NCI/ADR-RES ovarian = test system: NCI/ADR-RES ovarian
SF-539 CNS = test system: SF-539 CNS
M14 melanoma = test system: M14 melanoma
NCI-H226 lung = test system: NCI-H226 lung
HOP-62 NSCLC = test system: HOP-62 NSCLC
NCI-H522 lung = test system: NCI-H522 lung
HT29 colon = test system: HT29 colon
UACC-257 melanoma = test system: UACC-257 melanoma
U251 CNS = test system: U251 CNS
LOX IMVI melanoma = test system: LOX IMVI melanoma
CAKI-1 renal = test system: CAKI-1 renal
ACHN renal = test system: ACHN renal
SNB-19 CNS = test system: SNB-19 CNS
OVCAR-5 ovarian = test system: OVCAR-5 ovarian
RPMI-8226 leukemia = test system: RPMI-8226 leukemia
MCF7 breast = test system: MCF7 breast
SK-MEL-28 melanoma = test system: SK-MEL-28 melanoma
SW-620 colon = test system: SW-620 colon
MDA-N = test system: MDA-N
BT-549 breast = test system: BT-549 breast
NCI-H460 lung = test system: NCI-H460 lung
T-47D breast = test system: T-47D breast
SN12C renal = test system: SN12C renal
NCI-H23 lung = test system: NCI-H23 lung
HCC-2998 colon = test system: HCC-2998 colon
HL-60(TB) leukemia = test system: HL-60(TB) leukemia
DU-145 prostate = test system: DU-145 prostate
K-562 leukemia = test system: K-562 leukemia
786-0 renal = test system: 786-0 renal
SK-MEL-5 melanoma = test system: SK-MEL-5 melanoma
HCT-15 colon = test system: HCT-15 colon
RXF 393 renal = test system: RXF 393 renal
CCRF-CEM leukemia = test system: CCRF-CEM leukemia
UACC-62 melanoma = test system: UACC-62 melanoma
SR leukemia = test system: SR leukemia
KM12 colon = test system: KM12 colon
SK-MEL-2 melanoma = test system: SK-MEL-2 melanoma
SF-295 CNS = test system: SF-295 CNS
IGROV1 ovarian = test system: IGROV1 ovarian
PC-3 prostate = test system: PC-3 prostate
SF-268 CNS = test system: SF-268 CNS
COLO 205 colon = test system: COLO 205 colon
SK-OV-3 ovarian = test system: SK-OV-3 ovarian
OVCAR-8 ovarian = test system: OVCAR-8 ovarian
MDA-MB-435 = test system: MDA-MB-435
MOLT-4 leukemia = test system: MOLT-4 leukemia
OVCAR-4 ovarian = test system: OVCAR-4 ovarian
EKVX NSCLC = test system: EKVX NSCLC
HCT-116 colon = test system: HCT-116 colon
HOP-92 NSCLC = test system: HOP-92 NSCLC
HS 578T breast = test system: HS 578T breast
SNB-75 CNS = test system: SNB-75 CNS
MALME-3M melanoma = test system: MALME-3M melanoma
A549 NSCLC = test system: A549 NSCLC
TK-10 renal = test system: TK-10 renal
MDA-MB-231 breast = test system: MDA-MB-231 breast
OVCAR-3 ovarian = test system: OVCAR-3 ovarian
A498 renal = test system: A498 renal
UO-31 renal = test system: UO-31 renal

Cc1nn(C(=O)c2ccncc2)c2c1C(c1ccccc1O)SC(N)=N2 (stereo not given)
TGI (NCI/ADR-RES ovarian): > 10 µM | TGI (SF-539 CNS): > 10 µM | TGI (M14 melanoma): > 10 µM | TGI (NCI-H226 lung): > 10 µM | TGI (HOP-62 NSCLC): > 10 µM | TGI (NCI-H522 lung): > 10 µM | TGI (HT29 colon): > 10 µM | TGI (UACC-257 melanoma): > 10 µM | TGI (U251 CNS): > 10 µM | TGI (LOX IMVI melanoma): > 10 µM | TGI (CAKI-1 renal): > 10 µM | TGI (ACHN renal): > 10 µM | TGI (SNB-19 CNS): > 10 µM | TGI (OVCAR-5 ovarian): > 10 µM | TGI (RPMI-8226 leukemia): > 10 µM | TGI (MCF7 breast): > 10 µM | TGI (SK-MEL-28 melanoma): > 10 µM | TGI (SW-620 colon): > 10 µM | TGI (MDA-N): > 10 µM | TGI (BT-549 breast): > 10 µM | TGI (NCI-H460 lung): > 10 µM | TGI (T-47D breast): > 10 µM | TGI (SN12C renal): > 10 µM | TGI (NCI-H23 lung): > 10 µM | TGI (HCC-2998 colon): > 10 µM | TGI (HL-60(TB) leukemia): > 10 µM | TGI (DU-145 prostate): > 10 µM | TGI (K-562 leukemia): > 10 µM | TGI (786-0 renal): > 10 µM | TGI (SK-MEL-5 melanoma): > 10 µM | TGI (HCT-15 colon): > 10 µM | TGI (RXF 393 renal): > 10 µM | TGI (CCRF-CEM leukemia): > 10 µM | TGI (UACC-62 melanoma): > 10 µM | TGI (SR leukemia): > 10 µM | TGI (KM12 colon): > 10 µM | TGI (SK-MEL-2 melanoma): > 10 µM | TGI (SF-295 CNS): > 10 µM | TGI (IGROV1 ovarian): > 10 µM | TGI (PC-3 prostate): > 10 µM | TGI (SF-268 CNS): > 10 µM | TGI (COLO 205 colon): > 10 µM | TGI (SK-OV-3 ovarian): > 10 µM | TGI (OVCAR-8 ovarian): > 10 µM | TGI (MDA-MB-435): > 10 µM | TGI (MOLT-4 leukemia): > 10 µM | TGI (OVCAR-4 ovarian): > 10 µM | TGI (EKVX NSCLC): > 10 µM | TGI (HCT-116 colon): > 10 µM | TGI (HOP-92 NSCLC): > 10 µM | TGI (HS 578T breast): > 10 µM | TGI (SNB-75 CNS): > 10 µM | TGI (MALME-3M melanoma): > 10 µM | TGI (A549 NSCLC): > 10 µM | TGI (TK-10 renal): > 10 µM | TGI (MDA-MB-231 breast): > 10 µM | TGI (OVCAR-3 ovarian): > 10 µM

CCNC(=O)Cc1nc2c(=O)[nH]cnc2n1C1OC(CO)C(O)C1O (stereo not given)
TGI (NCI/ADR-RES ovarian): > 100 µM | TGI (SF-539 CNS): > 100 µM | TGI (M14 melanoma): > 100 µM | TGI (NCI-H226 lung): > 100 µM | TGI (HOP-62 NSCLC): > 100 µM | TGI (NCI-H522 lung): > 100 µM | TGI (HT29 colon): > 100 µM | TGI (UACC-257 melanoma): > 100 µM | TGI (U251 CNS): > 100 µM | TGI (LOX IMVI melanoma): > 100 µM | TGI (CAKI-1 renal): > 100 µM | TGI (ACHN renal): > 100 µM | TGI (SNB-19 CNS): > 100 µM | TGI (OVCAR-5 ovarian): > 100 µM | TGI (RPMI-8226 leukemia): > 100 µM | TGI (MCF7 breast): > 100 µM | TGI (SK-MEL-28 melanoma): > 100 µM | TGI (SW-620 colon): > 100 µM | TGI (MDA-N): > 100 µM | TGI (BT-549 breast): > 100 µM | TGI (NCI-H460 lung): > 100 µM | TGI (T-47D breast): > 100 µM | TGI (SN12C renal): > 100 µM | TGI (NCI-H23 lung): > 100 µM | TGI (HCC-2998 colon): > 100 µM | TGI (HL-60(TB) leukemia): > 100 µM | TGI (DU-145 prostate): > 100 µM | TGI (K-562 leukemia): > 100 µM | TGI (786-0 renal): > 100 µM | TGI (SK-MEL-5 melanoma): > 100 µM | TGI (HCT-15 colon): > 100 µM | TGI (RXF 393 renal): > 100 µM | TGI (CCRF-CEM leukemia): > 100 µM | TGI (UACC-62 melanoma): > 100 µM | TGI (KM12 colon): > 100 µM | TGI (SK-MEL-2 melanoma): > 100 µM | TGI (SF-295 CNS): > 100 µM | TGI (IGROV1 ovarian): > 100 µM | TGI (PC-3 prostate): > 100 µM | TGI (SF-268 CNS): > 100 µM | TGI (COLO 205 colon): > 100 µM | TGI (SK-OV-3 ovarian): > 100 µM | TGI (A498 renal): > 100 µM | TGI (OVCAR-8 ovarian): > 100 µM | TGI (MDA-MB-435): > 100 µM | TGI (MOLT-4 leukemia): > 100 µM | TGI (OVCAR-4 ovarian): > 100 µM | TGI (EKVX NSCLC): > 100 µM | TGI (HCT-116 colon): > 100 µM | TGI (HOP-92 NSCLC): > 100 µM | TGI (HS 578T breast): > 100 µM | TGI (UO-31 renal): > 100 µM | TGI (SNB-75 CNS): > 100 µM | TGI (MALME-3M melanoma): > 100 µM | TGI (A549 NSCLC): > 100 µM | TGI (TK-10 renal): > 100 µM | TGI (MDA-MB-231 breast): > 100 µM | TGI (OVCAR-3 ovarian): > 100 µM
